Measurements as given in PubChem BioAssay (NCI).
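Each compound was tested at five concentrations against cells in 96-well plates for 48 hours. Definition used: TGI = concentration required for complete inhibition of growth.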

Legend:
Experiment in all cases: NCI tumour cell line growth inhibition, 48 h
[1] = system: U251 CNS
[2] = system: PC-3 prostate
[3] = system: MDA-MB-435
[4] = system: M14 melanoma
[5] = system: SF-539 CNS
[6] = system: OVCAR-5 ovarian
[7] = system: HCC-2998 colon
[8] = system: KM12 colon
[9] = system: HCT-116 colon
[10] = system: OVCAR-3 ovarian
[11] = system: MOLT-4 leukemia
[12] = system: HT29 colon
[13] = system: RXF 393 renal
[14] = system: OVCAR-4 ovarian
[15] = system: A498 renal
[16] = system: HOP-92 NSCLC
[17] = system: DU-145 prostate
[18] = system: HL-60(TB) leukemia
[19] = system: SW-620 colon

SMILES	TGI [1]	TGI [2]	TGI [3]	TGI [4]	TGI [5]	TGI [6]	TGI [7]	TGI [8]	TGI [9]	TGI [10]	TGI [11]	TGI [12]	TGI [13]	TGI [14]	TGI [15]	TGI [16]	TGI [17]	TGI [18]	TGI [19]
COc1ccc(/C=C/C(=O)N[C@@H]2C(=O)N3[C@@H]2SC(C)(C)[C@@H]3C(=O)O)cc1	> 100 µM	> 100 µM	> 100 µM	> 100 µM	> 100 µM	> 100 µM	> 100 µM	> 100 µM	> 100 µM	> 100 µM	> 100 µM	> 100 µM	> 100 µM	> 100 µM	> 100 µM	> 100 µM	> 100 µM	> 100 µM	> 100 µM
Oc1ccc(Cn2c(-c3ccc(O)c(O)c3)nc3ccccc32)cc1O	47.1 µM	> 100 µM	32 µM	42.2 µM	24.1 µM	> 100 µM	27.3 µM	35 µM	16.3 µM	41.3 µM	12.4 µM	84.7 µM	> 100 µM	54.1 µM	> 100 µM	41.9 µM	66.9 µM	51.1 µM	42.1 µM
CC(C)NC(=O)OCc1c(COC(=O)NC(C)C)n(C)c2c1ccc1ccccc12	4.24 µM	17.1 µM	4.9 µM	3.2 µM	3.5 µM	7.43 µM	9.86 µM	15.5 µM	2.82 µM	12.4 µM	> 25.4 µM	13 µM	2.65 µM	9.19 µM	3.01 µM	2.6 µM	14.4 µM	22.4 µM	2.4 µM
O=C(CCCl)NNC1=NCCN1	> 100 µM	> 100 µM	> 100 µM	> 100 µM	> 100 µM	> 100 µM	> 100 µM	> 100 µM	> 100 µM	> 100 µM	> 100 µM	> 100 µM	> 100 µM	> 100 µM	> 100 µM	> 100 µM	> 100 µM	> 100 µM	> 100 µM
COc1ccccc1Cn1nc(OC)c2cc([N+](=O)[O-])ccc21	29 µM	> 100 µM	> 100 µM	> 100 µM	> 53.5 µM	> 100 µM	> 100 µM	> 100 µM	> 100 µM	> 100 µM	> 100 µM	> 100 µM	11.2 µM	> 100 µM	60.3 µM	33.8 µM	> 100 µM	> 100 µM	> 100 µM
COC(=O)C1(Cc2ccccc2)Cc2ccc3c(c2C1=O)CCC3 (configuration not stated)	> 100 µM	> 100 µM	> 77.9 µM	97.7 µM	> 76.9 µM	> 100 µM	> 100 µM	> 100 µM	> 100 µM	> 100 µM	69.5 µM	> 89.6 µM	> 69.5 µM	> 92.8 µM	> 89.8 µM	> 73 µM	> 100 µM	> 63.3 µM	> 100 µM
CN(C)c1nc(-c2ccccc2)c(C(=O)c2c[nH]c3ccccc23)s1	> 100 µM	> 100 µM	> 31.1 µM	> 100 µM	> 100 µM	> 100 µM	> 70.6 µM	> 100 µM	> 100 µM	> 94.4 µM	> 82.6 µM	> 100 µM	> 91.5 µM	> 100 µM	> 100 µM	> 33.2 µM	> 100 µM	16.5 µM	> 100 µM
Cc1[nH]c(=O)nc(NCCNCCO)c1C(=O)Nc1c2ccccc2nc2ccccc12	> 100 µM	> 100 µM	> 100 µM	> 100 µM	> 100 µM	> 100 µM	> 100 µM	> 100 µM	> 100 µM	> 100 µM	> 100 µM	> 100 µM	> 100 µM	> 100 µM	> 100 µM	> 100 µM	> 100 µM	> 100 µM	> 100 µM
